Laboratory results from article PMC12446476 (Nature Communications, 2025).
In brackets after ≈: the same amount, converted by molar mass. Read-outs that look alike come from different tables or passages of the source.

What was measured:
N. gonorrhoeae [1] = assay: MIC determination, broth microdilution (baseline for liquid-based assays); assay type: cell-based, Neisseria gonorrhoeae; details: for MIC: Neisseria gonorrhoeae
From the text: (§1) The 2024 WHO N. gonorrhoeae reference strains were used for quality control. Only whole MIC doubling dilutions are reported. Clinical breakpoints or the epidemiological cutoff (ECOFF, to indicate azithromycin resistance) from EUCAST (v14.0, https://www.eucast.org/clinical_breakpoints) were used to classify isolates as antimicrobial susceptible or resistant. […] Two times the standard inoculum defined by CLSI was used to establish consistent growth in untreated control samples for some strains. In vitro time-kill assays were performed according to CLSI guidelines[65] using Columbia Broth (BD Difco) supplemented with 1% IsoVitaleX Enrichment (BD). Viable bacterial counts were generated by plating 10-fold serially diluted samples on GC agar plates containing 1% IsoVitaleX Enrichment (BD).

N. gonorrhoeae [2] = assay: In vitro time-kill assay; assay type: cell-based, Neisseria gonorrhoeae; details: for mean time to reach bactericidal activity: ten isolates
From the text: as §1

In the case of `Cc1c(CN(C)C(=O)/C=C/c2cnc3c(c2)N[C@H](C)[C@H](O)C(=O)N3)oc2ccccc12` [Debio 1453], the “MIC, broth microdilution” value (N. gonorrhoeae [1]; 6804) is reported as 0.06 µg/mL (≈ 0.143 µM), the “MIC, broth microdilution” value (N. gonorrhoeae [1]; AR Bank0175) is reported as 0.06 µg/mL (≈ 0.143 µM) and the “MIC, broth microdilution” value (N. gonorrhoeae [1]; AR Bank0179) is reported as 0.06 µg/mL (≈ 0.143 µM). For the same compound, the MIC (N. gonorrhoeae [1]; ATCC49226, read-out: MIC, broth microdilution, ATCC 49226) was 0.125 µg/mL (≈ 0.297 µM), the MIC (N. gonorrhoeae [1]; ATCC700825, ATCC 700825, read-out: MIC, broth microdilution) was 0.03 µg/mL (≈ 0.0713 µM) and the MIC (N. gonorrhoeae [1]; read-out: MIC, broth microdilution, WHO V) was 0.125 µg/mL (≈ 0.297 µM). It also gave an MIC (N. gonorrhoeae [1]; read-out: MIC, broth microdilution, WHO X) of 0.125 µg/mL (≈ 0.297 µM), an MIC (N. gonorrhoeae [1]; read-out: MIC, broth microdilution, WHO Y) of 0.125 µg/mL (≈ 0.297 µM) and an MIC (N. gonorrhoeae [1]; read-out: MIC, broth microdilution, WHO Z) of 0.125 µg/mL (≈ 0.297 µM). For the same compound, the MIC (N. gonorrhoeae [1]; 6926, read-out: MIC, broth microdilution) was 0.06 µg/mL (≈ 0.143 µM), the “mean time to reach bactericidal activity” value (N. gonorrhoeae [2]; 2× MIC) was 10 h and the “mean time to reach bactericidal activity” value (N. gonorrhoeae [2]; 4× MIC) was 8.5 h. For the same compound, the “mean time to reach bactericidal activity” value (N. gonorrhoeae [2]; 8× MIC) was 8 h, the “mean time to reach bactericidal activity” value (N. gonorrhoeae [2]; 16× MIC) was 8 h and the “Log10CFU/ml (time kill)” value (N. gonorrhoeae [2]; 6804, 2X MIC, 0 hr) was 6.11 Log10CFU/ml. For the same compound, the “Log10CFU/ml (time kill)” value (N. gonorrhoeae [2]; 6804, 2X MIC, 1 hr) was 6.05 Log10CFU/ml, the “Log10CFU/ml (time kill)” value (N. gonorrhoeae [2]; 6804, 2X MIC, 3 hr) was 5.70 Log10CFU/ml and the “Log10CFU/ml (time kill)” value (N. gonorrhoeae [2]; 6804, 2X MIC, 6 hr) was 5.13 Log10CFU/ml. For the same compound, the “Log10CFU/ml (time kill)” value (N. gonorrhoeae [2]; 6804, 2X MIC, 10 hr) was 4.59 Log10CFU/ml, the “Log10CFU/ml (time kill)” value (N. gonorrhoeae [2]; 6804, 2X MIC, 24 hr) was 1.95 Log10CFU/ml and the “Log10CFU/ml (time kill)” value (N. gonorrhoeae [2]; 6804, 4X MIC, 0 hr) was 6.04 Log10CFU/ml. The “Log10CFU/ml (time kill)” value (N. gonorrhoeae [2]; 6804, 4X MIC, 1 hr) was 6.04 Log10CFU/ml, the “Log10CFU/ml (time kill)” value (N. gonorrhoeae [2]; 6804, 4X MIC, 3 hr) was 5.43 Log10CFU/ml and the “Log10CFU/ml (time kill)” value (N. gonorrhoeae [2]; 6804, 4X MIC, 6 hr) was 4.53 Log10CFU/ml. The “Log10CFU/ml (time kill)” value (N. gonorrhoeae [2]; 6804, 4X MIC, 10 hr) was 3.72 Log10CFU/ml, the “Log10CFU/ml (time kill)” value (N. gonorrhoeae [2]; 6804, 4X MIC, 24 hr) was 1.95 Log10CFU/ml and the “Log10CFU/ml (time kill)” value (N. gonorrhoeae [2]; 6804, 8X MIC, 0 hr) was 6.21 Log10CFU/ml. For the same compound, the “Log10CFU/ml (time kill)” value (N. gonorrhoeae [2]; 6804, 8X MIC, 1 hr) was 6.03 Log10CFU/ml, the “Log10CFU/ml (time kill)” value (N. gonorrhoeae [2]; 6804, 8X MIC, 3 hr) was 5.13 Log10CFU/ml and the “Log10CFU/ml (time kill)” value (N. gonorrhoeae [2]; 6804, 8X MIC, 6 hr) was 4.30 Log10CFU/ml. The “Log10CFU/ml (time kill)” value (N. gonorrhoeae [2]; 6804, 8X MIC, 10 hr) was 3.41 Log10CFU/ml, the “Log10CFU/ml (time kill)” value (N. gonorrhoeae [2]; 6804, 8X MIC, 24 hr) was 1.95 Log10CFU/ml and the “Log10CFU/ml (time kill)” value (N. gonorrhoeae [2]; 6804, 16X MIC, 0 hr) was 6.00 Log10CFU/ml. The “Log10CFU/ml (time kill)” value (N. gonorrhoeae [2]; 6804, 16X MIC, 1 hr) was 6.07 Log10CFU/ml, the “Log10CFU/ml (time kill)” value (N. gonorrhoeae [2]; 6804, 16X MIC, 3 hr) was 5.20 Log10CFU/ml and the “Log10CFU/ml (time kill)” value (N. gonorrhoeae [2]; 6804, 16X MIC, 6 hr) was 4.67 Log10CFU/ml. For the same compound, the “Log10CFU/ml (time kill)” value (N. gonorrhoeae [2]; 6804, 16X MIC, 10 hr) was 3.70 Log10CFU/ml, the “Log10CFU/ml (time kill)” value (N. gonorrhoeae [2]; 6804, 16X MIC, 24 hr) was 1.95 Log10CFU/ml and the “Log10CFU/ml (time kill)” value (N. gonorrhoeae [2]; AR Bank0175, 2X MIC, 0 hr) was 6.11 Log10CFU/ml. For the same compound, the “Log10CFU/ml (time kill)” value (N. gonorrhoeae [2]; AR Bank0175, 2X MIC, 1 hr) was 5.92 Log10CFU/ml, the “Log10CFU/ml (time kill)” value (N. gonorrhoeae [2]; AR Bank0175, 2X MIC, 3 hr) was 5.61 Log10CFU/ml and the “Log10CFU/ml (time kill)” value (N. gonorrhoeae [2]; AR Bank0175, 2X MIC, 6 hr) was 4.46 Log10CFU/ml. For the same compound, the “Log10CFU/ml (time kill)” value (N. gonorrhoeae [2]; AR Bank0175, 2X MIC, 10 hr) was 3.38 Log10CFU/ml, the “Log10CFU/ml (time kill)” value (N. gonorrhoeae [2]; AR Bank0175, 2X MIC, 24 hr) was 1.95 Log10CFU/ml and the “Log10CFU/ml (time kill)” value (N. gonorrhoeae [2]; AR Bank0175, 4X MIC, 0 hr) was 6.15 Log10CFU/ml. The “Log10CFU/ml (time kill)” value (N. gonorrhoeae [2]; AR Bank0175, 4X MIC, 1 hr) was 5.59 Log10CFU/ml, the “Log10CFU/ml (time kill)” value (N. gonorrhoeae [2]; AR Bank0175, 4X MIC, 3 hr) was 5.22 Log10CFU/ml and the “Log10CFU/ml (time kill)” value (N. gonorrhoeae [2]; AR Bank0175, 4X MIC, 6 hr) was 4.45 Log10CFU/ml. The “Log10CFU/ml (time kill)” value (N. gonorrhoeae [2]; AR Bank0175, 4X MIC, 10 hr) was 3.28 Log10CFU/ml, the “Log10CFU/ml (time kill)” value (N. gonorrhoeae [2]; AR Bank0175, 4X MIC, 24 hr) was 1.95 Log10CFU/ml and the “Log10CFU/ml (time kill)” value (N. gonorrhoeae [2]; AR Bank0175, 8X MIC, 0 hr) was 5.85 Log10CFU/ml. For the same compound, the “Log10CFU/ml (time kill)” value (N. gonorrhoeae [2]; AR Bank0175, 8X MIC, 1 hr) was 5.40 Log10CFU/ml, the “Log10CFU/ml (time kill)” value (N. gonorrhoeae [2]; AR Bank0175, 8X MIC, 3 hr) was 5.08 Log10CFU/ml and the “Log10CFU/ml (time kill)” value (N. gonorrhoeae [2]; AR Bank0175, 8X MIC, 6 hr) was 3.85 Log10CFU/ml. For the same compound, the “Log10CFU/ml (time kill)” value (N. gonorrhoeae [2]; AR Bank0175, 8X MIC, 10 hr) was 2.95 Log10CFU/ml, the “Log10CFU/ml (time kill)” value (N. gonorrhoeae [2]; AR Bank0175, 8X MIC, 24 hr) was 1.95 Log10CFU/ml and the “Log10CFU/ml (time kill)” value (N. gonorrhoeae [2]; AR Bank0175, 16X MIC, 0 hr) was 6.08 Log10CFU/ml. For the same compound, the “Log10CFU/ml (time kill)” value (N. gonorrhoeae [2]; AR Bank0175, 16X MIC, 1 hr) was 5.41 Log10CFU/ml, the “Log10CFU/ml (time kill)” value (N. gonorrhoeae [2]; AR Bank0175, 16X MIC, 3 hr) was 4.92 Log10CFU/ml and the “Log10CFU/ml (time kill)” value (N. gonorrhoeae [2]; AR Bank0175, 16X MIC, 6 hr) was 3.81 Log10CFU/ml. For the same compound, the “Log10CFU/ml (time kill)” value (N. gonorrhoeae [2]; AR Bank0175, 16X MIC, 10 hr) was 3.23 Log10CFU/ml, the “Log10CFU/ml (time kill)” value (N. gonorrhoeae [2]; AR Bank0175, 16X MIC, 24 hr) was 1.95 Log10CFU/ml and the “Log10CFU/ml (time kill)” value (N. gonorrhoeae [2]; AR Bank0179, 2X MIC, 0 hr) was 5.66 Log10CFU/ml.
